Experimental data reported in patent publication US12097213B2, “Sequential treatment of cancers using 6-thio-dG, checkpoint inhibitors and radiation therapy” (The Board of Regents of the University of Texas System, priority 2020, dated 2024).

How the values were obtained:
tumor cells = assay: Autophagy in tumor cells (data not shown); assay type: cell-based; conditions: after 6-thio-dG treatment
[1] = system: LLC murine lung tumor cells; assay: LLC tumor growth and treatment in mice; assay type: in vivo, mouse
Description: Tumor growth and treatment. A total of 5×10^5 MC38, 5×10^5 CT26 or 1×10^6 LLC cells were inoculated subcutaneously into right dorsal flanks of the mice in 100 μL phosphate buffered saline (PBS). Tumor-bearing mice were randomly grouped into treatment groups when tumors grew to around 100 mm^3. […] For CSF1R, NKL.1, CD4+ and CD8+ T cell depletion, 200 μg of antibodies were intraperitoneally injected 1 day before treatment initiation and then twice a week for 2 weeks. For PD-L1 blockade combination therapy in MC38 model, 6-thio-dG was given on day 10 and day 11, 50 μg PD-L1 was intraperitoneally injected on day 13 and 17. For PD-L1 blockade combination therapy in LLC model, 6-thio-dG was given on day 4, 5, 6, 10 and 11, 200 μg PD-L1 was intraperitoneally injected on day 8 and 13. Tumor volumes were measured by the length (a), width (b) and height (h) and calculated as tumor volume=abh/2.

Compound: Nc1nc2c(ncn2[C@H]2C[C@H](O)[C@@H](CO)O2)c(=S)[nH]1 [6-thio-dG, 6-thio-2′-deoxyguanosine]
- activation of autophagy in tumor cells (tumor cells): did not see activation of autophagy
- tumor growth ([1]; C57BL/6 mice, 3 mg/kg, three days treatment (days 4, 5, 6)): significant tumor growth delay
- tumor growth (FIG. 8A) ([1]; lewis lung carcinoma, three days 6-thio-dG followed two days later with anti-PD-L1): significant tumor control for 20 days
